The values below come from ChEMBL document CHEMBL1153744, “Diketopiperazines from the Cordyceps-colonizing fungus Epicoccum nigrum” (J Nat Prod, 2009).

Data set [1] deals with Human immunodeficiency virus 1. The experiment in a line: Inhibition of HIV1 viral replication infected in human C8166 cells assessed as suppression of virion-associated p24 antigen production after 4 days by ELISA. The data set is classed as functional, organism-based. The settings on record: Human immunodeficiency virus 1, C8166, 96 h. (ELISA stands for enzyme-linked immunosorbent assay.)

Data set [2] is described as follows: Cytotoxicity against human […] cells after 4 days by MTT assay. The format is cell-based. On the technique in general: Tetrazolium dyes change colour on reduction, which living cells bring about.

A value given as a limit tells only on which side of the number the result lay.

On to `CN1C(=O)[C@H](Cc2ccccc2)NC(=O)/C1=C/c1ccccc1` [DIPHENYLALAZINE A], for which the EC50 (in general, the concentration giving half of the maximal effect) in data set [1] is 27.9 µM. In data set [2], the CC50 (as a rule, the concentration that lowers cell viability or growth by half) at 96 h is > 100 µM.

As for `CS[C@@]12C[C@H]3C(=O)C[C@H](O)[C@H](O)[C@H]3N1C(=O)[C@]1(SC)C[C@H]3C(=O)C[C@H](O)[C@H](O)[C@H]3N1C2=O` [EPICOCCIN H], in data set [1], the EC50 is 42.2 µM. Further, the CC50 at 96 h in data set [2] is > 100 µM.

Turning to `CS[C@@]12C[C@H]3C(=O)CC[C@H](O)[C@H]3N1C(=O)[C@]1(SC)C[C@H]3C(=O)CC[C@H](O)[C@H]3N1C2=O` [EPICOCCIN G], the EC50 in data set [1] was 13.5 µM. For the same compound, the CC50 at 96 h in data set [2] was > 100 µM.
